Test [1] has as its target Melanocortin receptor 4 (Homo sapiens, UniProt P32245). As to the kind of experiment: MC4R antagonist potency on cAMP, dose response, cell-based, TR-FRET, biased antagonists (AID 602298).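 Further: antagonist potency against agonist-stimulated cAMP production.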 The format is functional. Background: In TR-FRET formats the signal depends on donor and acceptor labels being close together.
The nature of test [2]: nonselective inhibitors of cellular cAMP signaling, dose response, counter-screen for MC4R biased antagonist project, cell-based, TR-FRET cAMP detection (AID 602305).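 Further: U2OS cells stimulated with forskolin near its EC80 as the cAMP inducer; potency is for inhibition of forskolin-stimulated cAMP signaling.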 It counts as functional. (The purpose of a counterscreen is to sort out artefacts and off-target activity.)
Test [3] concerns the target Neuropeptides B/W receptor type 1 (Homo sapiens, UniProt P48145). As to the kind of experiment: GPR7 antagonist potency, late-stage follow-up, cell-based, fluorescence, dose response, set 5 (AID 588566). It counts as functional.
Test [4] addresses Melanin-concentrating hormone receptor 1 (Homo sapiens, UniProt Q99705). As to the kind of experiment: Late-stage fluorescence-based counterscreen for antagonists of the G-protein coupled receptor 7 (GPR7): cell-based dose response assay to identify antagonists of the melanin-concentrating hormone receptor 1 (MCHR1) Set 5. It counts as functional.
Test [5] can be described thus: Late-stage results from the probe development effort to identify antagonists of the G-protein coupled receptor 7 (GPR7): luminescence-based cell-based dose response counterscreen assay to determine cytotoxicity of antagonist compounds Set 3. It counts as functional.
A short description of test [6]: inhibitors of intracellular T. cruzi replication, confirmation, NIH3T3 host cells, beta-gal luminescence (AID 2044).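 Further: intracellular parasites grown in NIH/3T3 mouse fibroblasts as host cells; luminescent beta-galactosidase reporter signal from transgenic T. cruzi replicating inside host cells; inhibitors lower the luminescence signal.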 The format is functional, cell-based.
The nature of test [7]: microbe, parasite or virus in culture. The format is functional. The note with it: Mycobacterium tuberculosis.
Test [8] in a line: cytotoxicity toward NIH3T3 fibroblasts, dose response, counter-screen, cell-based, ATP luminescence, mouse fibroblasts (AID 2010).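 Further: cells exposed to compound for about 90 hours before reading.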 The format is functional.
Test [9] deals with T1, High affinity choline transporter 1 (Homo sapiens, UniProt Q9GZV3).
T1 sequence (Q9GZV3 whole entry): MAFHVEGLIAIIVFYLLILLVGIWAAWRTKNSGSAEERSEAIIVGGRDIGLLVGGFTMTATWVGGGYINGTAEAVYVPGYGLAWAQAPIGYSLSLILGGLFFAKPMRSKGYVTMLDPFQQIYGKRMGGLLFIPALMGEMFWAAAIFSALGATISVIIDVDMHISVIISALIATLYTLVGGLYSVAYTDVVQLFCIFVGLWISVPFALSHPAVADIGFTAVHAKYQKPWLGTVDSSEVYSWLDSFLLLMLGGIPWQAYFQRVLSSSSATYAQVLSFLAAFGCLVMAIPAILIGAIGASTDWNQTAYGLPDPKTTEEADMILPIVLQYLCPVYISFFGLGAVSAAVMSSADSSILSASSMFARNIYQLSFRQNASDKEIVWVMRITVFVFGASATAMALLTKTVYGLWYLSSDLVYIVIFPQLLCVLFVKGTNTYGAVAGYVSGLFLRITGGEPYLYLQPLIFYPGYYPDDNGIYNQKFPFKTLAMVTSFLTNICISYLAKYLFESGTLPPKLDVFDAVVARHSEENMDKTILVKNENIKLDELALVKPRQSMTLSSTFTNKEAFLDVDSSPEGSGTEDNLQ
Kind of test: CHT activators, dose response, cell-based, 10-point CRC, membrane potential dye (AID 602376). The format is functional.

Test [10] has as its target MAP kinase-activated protein kinase 3 (Homo sapiens, UniProt Q16644). The format is functional.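 Further: value comes from a kinome-wide profiling panel in which MAPKAPK3 is one of the panel members.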
Test [11] addresses G protein-coupled receptor kinase 5 (Homo sapiens, UniProt P34947). As to the kind of experiment: Navigating the Kinome. Panel member name: GPRK5. The format is functional.
In test [12] the target is Protein kinase C zeta type (Homo sapiens, UniProt Q05513). It counts as functional.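 Further: measured as one member of a broad kinase profiling panel.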
Sequence of Protein kinase C zeta type (Q05513 whole entry): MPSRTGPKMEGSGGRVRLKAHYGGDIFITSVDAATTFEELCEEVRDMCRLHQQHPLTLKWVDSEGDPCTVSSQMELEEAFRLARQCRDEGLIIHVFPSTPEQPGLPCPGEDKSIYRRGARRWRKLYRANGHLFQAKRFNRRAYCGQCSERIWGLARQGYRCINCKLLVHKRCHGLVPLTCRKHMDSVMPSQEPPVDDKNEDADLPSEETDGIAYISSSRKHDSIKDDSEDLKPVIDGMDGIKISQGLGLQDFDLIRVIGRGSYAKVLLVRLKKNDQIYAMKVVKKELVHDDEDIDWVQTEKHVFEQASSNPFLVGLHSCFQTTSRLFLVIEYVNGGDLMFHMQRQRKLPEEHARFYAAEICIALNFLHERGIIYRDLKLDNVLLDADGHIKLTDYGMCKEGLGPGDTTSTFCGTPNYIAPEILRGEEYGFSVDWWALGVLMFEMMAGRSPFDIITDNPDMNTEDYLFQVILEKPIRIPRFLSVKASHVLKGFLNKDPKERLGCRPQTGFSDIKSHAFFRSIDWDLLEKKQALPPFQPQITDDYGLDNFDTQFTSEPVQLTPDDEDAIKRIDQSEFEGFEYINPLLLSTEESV
The target of test [13] is Protein kinase C gamma type (Homo sapiens, UniProt P05129). It counts as functional.

Active and inactive are the calls of the source.

The term IC50 denotes the concentration needed to halve the response being measured. What is called EC50 is the midpoint of the concentration-response curve. Usually Ki stands for a dissociation constant, usually derived from enzyme kinetics or from competition with a known ligand.

Sequence of Melanocortin receptor 4 (P32245 whole entry): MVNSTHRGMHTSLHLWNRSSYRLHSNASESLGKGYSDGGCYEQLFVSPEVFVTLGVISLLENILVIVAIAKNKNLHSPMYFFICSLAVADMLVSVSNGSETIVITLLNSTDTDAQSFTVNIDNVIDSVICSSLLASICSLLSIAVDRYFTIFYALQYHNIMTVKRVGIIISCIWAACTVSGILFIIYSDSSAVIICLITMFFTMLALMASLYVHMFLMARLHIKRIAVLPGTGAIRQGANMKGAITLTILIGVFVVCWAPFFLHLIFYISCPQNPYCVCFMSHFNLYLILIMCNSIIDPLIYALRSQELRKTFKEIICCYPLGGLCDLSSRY
Sequence of MAP kinase-activated protein kinase 3 (Q16644 whole entry): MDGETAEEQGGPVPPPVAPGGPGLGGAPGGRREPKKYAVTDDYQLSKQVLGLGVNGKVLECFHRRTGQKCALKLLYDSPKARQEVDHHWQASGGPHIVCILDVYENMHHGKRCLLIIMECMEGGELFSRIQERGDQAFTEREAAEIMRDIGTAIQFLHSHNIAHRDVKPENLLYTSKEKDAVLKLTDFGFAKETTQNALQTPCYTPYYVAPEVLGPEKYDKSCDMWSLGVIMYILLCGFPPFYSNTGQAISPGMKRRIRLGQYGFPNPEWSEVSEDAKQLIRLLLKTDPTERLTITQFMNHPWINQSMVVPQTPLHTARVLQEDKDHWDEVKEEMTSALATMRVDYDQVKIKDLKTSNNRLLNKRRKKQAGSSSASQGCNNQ
Sequence of G protein-coupled receptor kinase 5 (P34947 whole entry): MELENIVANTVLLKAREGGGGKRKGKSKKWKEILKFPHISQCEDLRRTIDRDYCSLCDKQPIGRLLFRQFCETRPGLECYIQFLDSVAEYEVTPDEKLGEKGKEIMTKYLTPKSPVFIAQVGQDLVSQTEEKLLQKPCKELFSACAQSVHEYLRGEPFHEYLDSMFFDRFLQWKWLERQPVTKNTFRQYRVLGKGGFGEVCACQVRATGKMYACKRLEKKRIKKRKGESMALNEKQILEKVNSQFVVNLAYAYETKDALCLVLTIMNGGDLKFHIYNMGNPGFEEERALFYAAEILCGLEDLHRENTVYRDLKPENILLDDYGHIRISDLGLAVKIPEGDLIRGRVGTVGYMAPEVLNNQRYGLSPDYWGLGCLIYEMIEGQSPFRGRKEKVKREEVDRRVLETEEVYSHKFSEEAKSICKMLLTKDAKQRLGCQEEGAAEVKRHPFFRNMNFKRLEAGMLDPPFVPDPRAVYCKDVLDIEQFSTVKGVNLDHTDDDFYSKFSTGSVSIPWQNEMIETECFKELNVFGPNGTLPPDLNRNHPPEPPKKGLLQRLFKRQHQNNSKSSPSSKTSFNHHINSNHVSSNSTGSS
Sequence of Neuropeptides B/W receptor type 1 (P48145 whole entry): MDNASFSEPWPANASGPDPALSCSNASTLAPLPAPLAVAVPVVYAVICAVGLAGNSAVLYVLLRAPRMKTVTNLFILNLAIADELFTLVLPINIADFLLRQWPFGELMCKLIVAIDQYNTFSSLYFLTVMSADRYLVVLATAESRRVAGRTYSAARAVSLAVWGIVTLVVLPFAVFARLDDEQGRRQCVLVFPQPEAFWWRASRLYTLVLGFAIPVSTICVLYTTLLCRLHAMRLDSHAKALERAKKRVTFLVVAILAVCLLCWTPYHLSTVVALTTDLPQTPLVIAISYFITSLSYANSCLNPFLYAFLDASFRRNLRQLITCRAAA
Sequence of Melanin-concentrating hormone receptor 1 (Q99705 whole entry): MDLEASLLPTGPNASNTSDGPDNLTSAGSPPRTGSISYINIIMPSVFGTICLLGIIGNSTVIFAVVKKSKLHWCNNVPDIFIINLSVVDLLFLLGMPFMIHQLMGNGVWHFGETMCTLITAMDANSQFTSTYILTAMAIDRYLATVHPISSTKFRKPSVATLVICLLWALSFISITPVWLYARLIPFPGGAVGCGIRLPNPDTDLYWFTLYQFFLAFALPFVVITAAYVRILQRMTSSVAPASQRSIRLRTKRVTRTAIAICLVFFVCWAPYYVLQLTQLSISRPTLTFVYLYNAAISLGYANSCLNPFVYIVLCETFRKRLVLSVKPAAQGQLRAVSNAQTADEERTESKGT

In the case of `CC(=O)Oc1ccc2nc(-c3ccco3)oc(=O)c2c1`, the IC50 in [1] and in [2] was > 64.6 µM (inactive) throughout.
Turning to `CS(=O)(=O)c1ccc(Oc2c(Cl)cnn(Cc3cccc4ccccc34)c2=O)cc1`, the concentration for half-maximal inhibition (IC50) is 1.13 µM (active) in [3] and 2.46 µM (active) in test [4].
In the case of `COc1ccc(Oc2c(Cl)cnn(C3c4ccccc4-c4ccccc43)c2=O)cc1`, the CC50 in test [5] was > 20 µM (inactive).
In the case of `Cc1ccc(-n2c(C)cc(/C=N/NC(N)=S)c2C)cc1`, the 50% effective concentration (EC50) in [6] was 0.315 µM (active); in test [8], > 60 µM (inconclusive); in [9], 9.06 µM (active). In test [7], the CC50 was > 40 µM (active).
As to `CCN(CCO)CCCOc1ccc2c(Nc3cc(CC(=O)Nc4cccc(F)c4)[nH]n3)ncnc2c1` [DEFOSBARASERTIB], the Ki in [10] is > 10 µM (inactive); in [11] it was > 3.98 µM (inactive); in test [12], > 7.94 µM (inactive); in [13], > 7.94 µM (inactive).
